Experimental findings from patent publication US20240228501A1, “IMIDAZOLE-CONTAINING CONDENSED RING DERIVATIVE, PREPARATION METHOD THEREFOR, AND APPLICATION THEREOF IN MEDICINE” (CHANGCHUN GENESCIENCE PHARMACEUTICAL CO., LTD., priority 2021, published 2024) are described below.

The term pIC50 denotes −log10 of the IC50, conventionally taken in molar units. Higher therefore signals a small IC50.

The target in the assay is T1, human NK-3 receptor (Homo sapiens, UniProt P29371).
T1 construct: expressed in transfected cells; host or cells: HEK293
T1 sequence (P29371 1-465): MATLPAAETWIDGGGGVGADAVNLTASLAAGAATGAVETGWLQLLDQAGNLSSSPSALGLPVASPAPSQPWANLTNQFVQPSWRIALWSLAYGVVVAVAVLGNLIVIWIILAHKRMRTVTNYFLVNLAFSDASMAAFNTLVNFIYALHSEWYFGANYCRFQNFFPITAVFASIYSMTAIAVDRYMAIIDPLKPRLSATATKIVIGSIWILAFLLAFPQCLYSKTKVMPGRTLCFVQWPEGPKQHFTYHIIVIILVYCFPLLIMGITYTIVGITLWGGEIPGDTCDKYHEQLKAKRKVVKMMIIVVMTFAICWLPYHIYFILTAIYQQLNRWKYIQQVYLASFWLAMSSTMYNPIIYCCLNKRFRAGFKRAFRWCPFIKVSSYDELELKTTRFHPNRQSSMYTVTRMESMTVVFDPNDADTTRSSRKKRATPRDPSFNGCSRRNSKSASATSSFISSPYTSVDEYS
The assay can be described thus: Antagonistic activity on human NK-3 receptor in human NK-3R/HEK293 stably transfected cells (Fluo-4, FLIPR, Neurokinin B as agonist). It counts as cell-based. The conditions noted are these: human NK-3R/HEK293 cells. As for the experimental part: Test Example 1: Determination of Activity of Compounds of the Present Invention on Human NK-3 Receptor
This method is used to determine antagonistic effects of the compounds of the present invention on the activity of human NK-3 receptor proteins expressed in cell lines stably transfected with human NK-3R/HEK293.
2.1 The cell lines stably transfected with human NK-3R/HEK293 were inoculated in a 384-well cell culture plate at a inoculation density of 12,000 cells/well/25 μL, and cultured at 37° C. and 5% CO2 overnight;
2.2 20× Component A was frozen and thawed to room temperature, diluted 2× with Assay Buffer to working concentration, and kept at room temperature for later use;
2.3 The cell culture plate was equilibrated at room temperature for 10 min, the culture medium was removed, and 20 μL of Assay Buffer and 20 μL of 2× Component A […] were added, followed by centrifugation at 200 g at room temperature for 3-5 sec, and incubation at 37° C. for 2 h;
2.4 The compound was diluted 3 times with DMSO in 384 PP_DMSO plate, and then 240 nl/well of the compound was transferred into a working plate with Echo 550, centrifugated at 200 g at room temperature for 1 min; 40 μl of Assay Buffer was added into the working plate, centrifugated at 200 g at room temperature for 1 min, and then fully mixed in an oscillator at 2500 rpm for 20 min, and then centrifugated at 200 g at room temperature for 1 min for later use;
2.5 2.5 nM Neurokinin B TFA (6×) was prepared from Assay Buffer, 50 uL of which was transferred onto 3657 plate for later use;
2.6 The cell culture plate was taken out and left to stand at room temperature for 10 min, then […] the compound diluted in step 2.4 was added into corresponding wells, and the cell culture plate was left to stand at 25° C. for 30 min; and
2.7 10 μL of the compound diluted in step 2.5 was added into the corresponding experimental wells with FLIPR Tetra, and data was collected.
The antagonistic activity of the compounds of the present invention on the human NK-3 receptor was determined through the above experiments, to obtain inhibition curves of the compounds of the present invention and determine concentrations (IC50) of the corresponding compounds that inhibit 50% of the reference agonist.

pIC50: −log10 of the molar value.

Regarding `Cc1nsc(-c2nc(-c3ccncc3F)c3n2CCN(C(=O)c2ccc(F)cc2)[C@@H]3C)n1` [Compound 046, (R)-(4-fluorophenyl)(1-(3-fluoropyridin-4-yl)-8-methyl-3-(3-methyl-1,2,4-thiadiazol-5-yl)-5,6-dihydroimidazo[1,5-a]pyrazin-7 (8H)-yl)methanone], the pIC50 is 8.15.
The same measure for `Cc1nsc(-c2nc(N3CCCC3=O)c3n2CCN(C(=O)c2ccc(F)cc2C)[C@@H]3C)n1` [Compound 128, (R)-1-(7-(4-fluoro-2-methylbenzoyl)-8-methyl-3-(3-methyl-1,2,4-thiadiazol-5-yl)-5,6,7,8-tetrahydroimidazo[1,5-a]pyrazin-1-yl)pyrrolidin-2-one]: 7.07; for `Cc1nsc(-c2nc(N3C[C@H](O)CC3=O)c3n2CCN(C(=O)c2ccc(F)cc2)[C@@H]3C)n1` [Compound 103, (R)-1-((R)-7-(4-fluorobenzoyl)-8-methyl-3-(3-methyl-1,2,4-thiadiazol-5-yl)-5,6,7,8-tetrahydroimidazo[1,5-a]pyrazin-1-yl)-4-hydroxypyrrolidin-2-one]: 8.24; for `Cc1nsc(-c2nc(N3CCOCCC3=O)c3n2CCN(C(=O)c2ccc(F)cc2)[C@@H]3C)n1` [Compound 114, (R)-1-[7-(4-fluorobenzoyl)-8-methyl-3-(3-methyl-1,2,4-thiadiazol-5-yl)-5,6,7,8-tetrahydroimidazo[1,5-a]pyrazin-1-yl]-1,4-azepan-5-one]: 7.54.
The same measure for `Cc1nsc(-c2nc(N3CCCCCC3=O)c3n2CCN(C(=O)c2ccc(F)cc2)[C@@H]3C)n1` [Compound 117]: 7.14; for `Cc1nsc(-c2nc(N3CC=CC3=O)c3n2CCN(C(=O)c2ccc(F)cc2)[C@@H]3C)n1` [Compound 096, (R)-1-(7-(4-fluorobenzoyl)-8-methyl-3-(3-methyl-1,2,4-thiadiazol-5-yl)-5,6,7,8-tetrahydroimidazo[1,5-a]pyrazin-1-yl)-1,5-dihydro-2H-pyrrol-2-one]: 7.17.
With `Cc1nsc(-c2nc(N3CCCC3=O)c3n2CCN(C(=O)c2cc(F)c(F)c(F)c2)[C@@H]3C)n1` [Compound 220, (R)-1-(8-methyl-3-(3-methyl-1,2,4-thiadiazol-5-yl)-7-(3,4,5-trifluorobenzoyl)-5,6,7,8-tetrahydroimidazo[1,5-a]pyrazin-1-yl)pyrrolidin-2-one] the figure was 7.55.
`C[C@@H]1c2c(N3C[C@H](O)CC3=O)nc(-c3nc(C(F)(F)F)cs3)n2CCN1C(=O)c1ccc(F)cc1` [Compound 120, (R)-1-((R)-7-(4-fluorobenzoyl)-8-methyl-3-(4-(trifluoromethyl)thiazol-2-yl)-5,6,7,8-tetrahydroimidazo[1,5-a]pyrazin-1-yl)-4-hydroxypyrrolidin-2-one] showed a negative logarithm of the IC50 (pIC50) of 7.73.
`Cc1nsc(-c2nc(N3CCCCC3=O)c3n2CCN(C(=O)c2ccc(F)cc2)[C@@H]3C)n1` [Compound 069, (R)-1-(7-(4-fluorobenzoyl)-8-methyl-3-(3-methyl-1,2,4-thiadiazol-5-yl)-5,6,7,8-tetrahydroimidazo[1,5-a]pyrazin-1-yl)piperidin-2-one]: the pIC50 was 8.13. This pIC50 lies 0.40 log units higher than the previous one.
The same measure for `Cc1nsc(-c2nc(-c3ccncn3)c3n2CCN(C(=O)c2ccc(F)cc2)[C@@H]3C)n1` [Compound 027, (R)-(4-fluorophenyl)(8-methyl-3-(3-methyl-1,2,4-thiadiazol-5-yl)-1-(pyrimidin-4-yl)-5,6-dihydroimidazo[1,5-a]pyrazin-7 (8H)-yl)methanone]: 7.53; for `Cc1nsc(-c2nc(NS(C)(=O)=O)c3n2CCN(C(=O)c2ccc(F)cc2)[C@@H]3C)n1` [Compound 040, (R)—N-(7-(4-fluorobenzoyl)-8-methyl-3-(3-methyl-1,2,4-thiadiazol-5-yl)-5,6,7,8-tetrahydroimidazo[1,5-a]pyrazin-1-yl)methanesulfonamide]: 7.29.
With `Cc1nsc(-c2nc(-c3ccco3)c3n2CCN(C(=O)c2ccc(F)cc2)[C@@H]3C)n1` [Compound 218, (R)-(4-fluorophenyl)(1-(furan-2-yl)-8-methyl-3-(3-methyl-1,2,4-thiadiazol-5-yl)-5,6-dihydroimidazo[1,5-a]pyrazin-7 (8H)-yl)methanone] the figure was 6.65; with `CC(=O)N[C@@H]1CC(=O)N(c2nc(-c3nc(C)ns3)n3c2[C@@H](C)N(C(=O)c2ccc(F)cc2)CC3)C1` [Compound 132, N—{(R)-1-[(R)-7-(4-fluorobenzoyl)-8-methyl-3-(3-methyl-1,2,4-thiadiazol-5-yl)-5,6,7,8-tetrahydroimidazo[1,5-a]pyrazin-1-yl]-5-oxopyrrolidin-3-yl}acetamide], 7.79; with `C[C@@H]1c2c(N3CCCC3=O)nc(-c3nc(CF)ns3)n2CCN1C(=O)c1ccc(F)cc1` [Compound 184, (R)-1-(7-(4-fluorobenzoyl)-3-(3-(fluoromethyl)-1,2,4-thiadiazol-5-yl)-8-methyl-5,6,7,8-tetrahydroimidazo[1,5-a]pyrazin-1-yl)pyrrolidin-2-one], 7.33.
The same measure for `Cc1nsc(-c2nc(-c3c(F)cccc3F)c3n2CCN(C(=O)c2ccc(F)cc2)[C@@H]3C)n1` [Compound 063, (R)-(1-(2,6-difluorophenyl)-8-methyl-3-(3-methyl-1,2,4-thiadiazol-5-yl)-5,6-dihydroimidazo[1,5-a]pyrazin-7 (8H)-yl)(4-fluorophenyl)methanone]: 7.32.
In turn, `CC(=O)O[C@@H]1CC(=O)N(c2nc(-c3nc(C)ns3)n3c2[C@@H](C)N(C(=O)c2ccc(F)cc2)CC3)C1` [Compound 133, (R)-1-[(R)-7-(4-fluorobenzoyl)-8-methyl-3-(3-methyl-1,2,4-thiadiazol-5-yl)-5,6,7,8-tetrahydroimidazo[1,5-a]pyrazin-1-yl]-5-oxopyrrolidin-3-ylacetate] had a negative logarithm of the IC50 (pIC50) of 7.73. Compared with the last compound, the pIC50 is 0.41 log units higher.
In turn, `CC(=O)N(C)c1nc(-c2nc(C)ns2)n2c1C(C)N(C(=O)c1ccc(F)cc1)CC2` (stereo not shown) [Compound 010, N-(7-(4-fluorobenzoyl)-8-methyl-3-(3-methyl-1,2,4-thiadiazol-5-yl)-5,6,7,8-tetrahydroimidazo[1,5-a]pyrazin-1-yl)-N-methylacetamide] gave a pIC50 of 7.48.
The same measure for `Cc1nsc(-c2nc(-c3ccnnc3)c3n2CCN(C(=O)c2ccc(F)cc2)[C@@H]3C)n1` [Compound 028, (R)-(4-fluorophenyl)(8-methyl-3-(3-methyl-1,2,4-thiadiazol-5-yl)-1-(pyridazin-4-yl)-5,6-dihydroimidazo[1,5-a]pyrazin-7 (8H)-yl)methanone]: 7.25; for `Cc1cc(-c2nc(-c3nc(C)ns3)n3c2[C@@H](C)N(C(=O)c2ccc(F)cc2)CC3)ccn1` [Compound 043, (R)-(4-fluorophenyl)(8-methyl-3-(3-methyl-1,2,4-thiadiazol-5-yl)-1-(2-methylpyridin-4-yl)-5,6-dihydroimidazo[1,5-a]pyrazin-7 (8H)-yl)methanone]: 7.53; for `Cc1nsc(-c2nc(N3CCNCC3=O)c3n2CCN(C(=O)c2ccc(F)cc2)[C@@H]3C)n1` [Compound 123, (R)-1-(7-(4-fluorobenzoyl)-8-methyl-3-(3-methyl-1,2,4-thiadiazol-5-yl)-5,6,7,8-tetrahydroimidazo[1,5-a]pyrazin-1-yl)piperazin-2-one]: 7.64.
With `Cc1nsc(-c2nc(N3C[C@H](N)CC3=O)c3n2CCN(C(=O)c2ccc(F)cc2)[C@@H]3C)n1` [Compound 129] the figure was 7.37.
The same measure for `Cc1nsc(-c2nc(N3C[C@@H](O)CC3=O)c3n2CCN(C(=O)c2ccc(F)cc2)[C@@H]3C)n1` [Compound 104, (S)-1-((R)-7-(4-fluorobenzoyl)-8-methyl-3-(3-methyl-1,2,4-thiadiazol-5-yl)-5,6,7,8-tetrahydroimidazo[1,5-a]pyrazin-1-yl)-4-hydroxypyrrolidin-2-one]: 7.51.
